Common to all, as to format: biochemical
One test concerns the target T1, recombinant PRL-2 (Homo sapiens, UniProt Q12974).
T1 construct: 6xHis (N, cleaved yes); made in house; host or cells: E. coli One Shot BL21 Star
T1 sequence (Q12974 1-167): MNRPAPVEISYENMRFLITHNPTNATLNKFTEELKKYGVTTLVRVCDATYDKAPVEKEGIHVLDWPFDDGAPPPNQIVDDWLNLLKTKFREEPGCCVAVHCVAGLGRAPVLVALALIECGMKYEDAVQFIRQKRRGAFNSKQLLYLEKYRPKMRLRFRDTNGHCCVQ
Briefly: In vitro phosphatase assay (DiFMUP hydrolysis), PRL-2.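 Note: PRL-2 activity read as DiFMUP hydrolysis after 20 min at room temperature with drug, enzyme first pre-reduced at 4 °C for 20 min.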

The target in another test is T2, recombinant PRL-3 (Homo sapiens, UniProt O75365).
T2 construct: 6xHis (N, cleaved yes); made in house; host or cells: E. coli One Shot BL21 Star
T2 sequence (O75365 whole entry): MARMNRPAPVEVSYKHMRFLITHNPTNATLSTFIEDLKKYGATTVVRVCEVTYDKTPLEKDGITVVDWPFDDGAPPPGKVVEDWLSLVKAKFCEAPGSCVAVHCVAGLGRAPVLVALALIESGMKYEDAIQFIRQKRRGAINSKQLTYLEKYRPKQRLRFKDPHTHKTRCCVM
Kind of test: In vitro phosphatase assay (DiFMUP hydrolysis), PRL-3. Note: test concentration or dose not given here.

A further test concerns the target T3, recombinant PRL-1 (Homo sapiens, UniProt Q93096).
T3 construct: 6xHis (N, cleaved yes); made in house; host or cells: E. coli One Shot BL21 Star
T3 sequence (Q93096 1-173): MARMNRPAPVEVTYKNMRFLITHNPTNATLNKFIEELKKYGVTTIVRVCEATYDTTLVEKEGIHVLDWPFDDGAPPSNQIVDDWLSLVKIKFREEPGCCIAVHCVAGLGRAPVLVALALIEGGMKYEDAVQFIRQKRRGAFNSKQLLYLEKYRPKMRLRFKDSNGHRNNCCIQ
Briefly: In vitro phosphatase assay (DiFMUP hydrolysis), PRL-1. Note: test concentration or dose not given here.

[1] abbreviates: FDA-approved drug screen, compared to DMSO.
Setting [2] is: FDA-approved drug screen, activity compared to DMSO.

Each structure is given as a SMILES string. Where a name gives a salt, the structure may show the parent alone. Read-outs that look alike come from different tables or passages of the source.

For `O=C(Nc1ccccc1)OCC(CN1CCCCC1)OC(=O)Nc1ccccc1` (stereo not drawn) [Diperodon HCl], the “% Phosphatase Activity (compared to DMSO) PRL-2” value at recombinant PRL-2 (setting [1]) was 98%. Also, the “% Phosphatase Activity (compared to DMSO) PRL-3” value on recombinant PRL-3 (setting [1]) turned out to be 103%. Besides, the “% Phosphatase Activity (compared to DMSO) PRL-1” value on recombinant PRL-1 (setting [1]) was 99%.

As for `CNC[C@H](O)[C@@H](O)[C@H](O)[C@H](O)CO.CNC[C@H](O)[C@@H](O)[C@H](O)[C@H](O)CO.C[C@@H](O[C@H]1OCCN(Cc2nn(P(=O)(O)O)c(=O)[nH]2)[C@H]1c1ccc(F)cc1)c1cc(C(F)(F)F)cc(C(F)(F)F)c1` [Fosaprepitant dimeglumine salt], on recombinant PRL-2 (setting [1]), the “% Phosphatase Activity (compared to DMSO) PRL-2” value is listed as 94%. In addition, the “% Phosphatase Activity (compared to DMSO) PRL-3” value at recombinant PRL-3 (setting [1]) was determined as 85%. In addition, the “% Phosphatase Activity (compared to DMSO) PRL-1” value on recombinant PRL-1 (setting [1]) was 87%.

Take `CN(C)C/C=C/C(=O)Nc1cc2c(Nc3ccc(F)c(Cl)c3)ncnc2cc1O[C@H]1CCOC1.O=C(O)/C=C\C(=O)O.O=C(O)/C=C\C(=O)O` [Afatinib (BIBW2992) Dimaleate]: the “% Phosphatase Activity (compared to DMSO) PRL-2” value on recombinant PRL-2 (setting [1]) turned out to be 94%. For the same molecule, the “% Phosphatase Activity (compared to DMSO) PRL-3” value at recombinant PRL-3 (setting [1]) was 101%. For the same molecule, the “% Phosphatase Activity (compared to DMSO) PRL-1” value at recombinant PRL-1 (setting [1]) was 97%.

On to `O=C(c1ccc(F)c(F)c1Nc1ccc(I)cc1F)N1CC(O)([C@@H]2CCCCN2)C1` [Cobimetinib (GDC-0973, RG7420)], for which the “% Phosphatase Activity (compared to DMSO) PRL-2” value at recombinant PRL-2 (setting [1]) came out at 97%. The “% Phosphatase Activity (compared to DMSO) PRL-3” value at recombinant PRL-3 (setting [1]) was 95%. Moreover, at recombinant PRL-1 (setting [1]), the “% Phosphatase Activity (compared to DMSO) PRL-1” value is recorded as 95%.

As for `C/C(=C\c1csc(C)n1)[C@@H]1C[C@@H]2O[C@]2(C)CCC[C@H](C)[C@H](O)[C@@H](C)C(=O)C(C)(C)[C@@H](O)CC(=O)O1` [Epothilone B (EPO906, Patupilone)], the “% Phosphatase Activity (compared to DMSO) PRL-2” value on recombinant PRL-2 (setting [1]) is recorded as 93%. For the same molecule, on recombinant PRL-3 (setting [1]), the “% Phosphatase Activity (compared to DMSO) PRL-3” value is reported as 80%. Further, the “% Phosphatase Activity (compared to DMSO) PRL-1” value on recombinant PRL-1 (setting [1]) came to 98%.

Consider `CN1C2CCCC1CC(NC(=O)c1nn(C)c3ccccc13)C2` (stereo not drawn) [Granisetron HCl], for which the “% Phosphatase Activity (compared to DMSO) PRL-2” value on recombinant PRL-2 (setting [1]) is listed as 74%. Besides, on recombinant PRL-3 (setting [1]), the “% Phosphatase Activity (compared to DMSO) PRL-3” value was found to be 93%. In addition, the “% Phosphatase Activity (compared to DMSO) PRL-1” value at recombinant PRL-1 (setting [1]) turned out to be 86%.

For the molecule `C[C@@H]1CC(=O)NN=C1c1ccc(NN=C(C#N)C#N)cc1` [Levosimendan], the “% Phosphatase Activity (compared to DMSO) PRL-2” value at recombinant PRL-2 (setting [1]) is on record as 58%. Further, on recombinant PRL-3 (setting [1]), the “% Phosphatase Activity (compared to DMSO) PRL-3” value is given as 69%. In addition, the “% Phosphatase Activity (compared to DMSO) PRL-1” value on recombinant PRL-1 (setting [1]) came to 76%.

Take `CC(C)(Oc1ccc(Cl)cc1)C(=O)O` [Clofibric Acid]: at recombinant PRL-2 (setting [1]), the “% Phosphatase Activity (compared to DMSO) PRL-2” value is given as 95%. Moreover, the “% Phosphatase Activity (compared to DMSO) PRL-3” value on recombinant PRL-3 (setting [1]) was determined as 81%. Also, at recombinant PRL-1 (setting [1]), the “% Phosphatase Activity (compared to DMSO) PRL-1” value was found to be 99%.

For `O=C(NCCO[N+](=O)[O-])c1cccnc1` [Nicorandil], on recombinant PRL-2 (setting [1]), the “% Phosphatase Activity (compared to DMSO) PRL-2” value is given as 103%. The “% Phosphatase Activity (compared to DMSO) PRL-3” value on recombinant PRL-3 (setting [1]) is 91%. On recombinant PRL-1 (setting [1]), the “% Phosphatase Activity (compared to DMSO) PRL-1” value is recorded as 86%.

For the molecule `CN1CCN2c3ncccc3Cc3ccccc3C2C1` (stereo not drawn) [Mirtazapine], the “% Phosphatase Activity (compared to DMSO) PRL-2” value on recombinant PRL-2 (setting [1]) amounted to 114%. In addition, the “% Phosphatase Activity (compared to DMSO) PRL-3” value on recombinant PRL-3 (setting [1]) is 98%. In addition, at recombinant PRL-1 (setting [1]), the “% Phosphatase Activity (compared to DMSO) PRL-1” value came to 92%.

Consider `Nc1nc(=O)n([C@@H]2CS[C@H](CO)O2)cc1F` [Emtricitabine], for which the “% Phosphatase Activity (compared to DMSO) PRL-2” value on recombinant PRL-2 is given as 97%. The “% Phosphatase Activity (compared to DMSO) PRL-3” value at recombinant PRL-3 is reported as 75%. The “% Phosphatase Activity (compared to DMSO) PRL-1” value at recombinant PRL-1 was determined as 104%.

For the molecule `Nc1ccn([C@H]2CC[C@@H](CO)O2)c(=O)n1` [Zalcitabine], the “% Phosphatase Activity (compared to DMSO) PRL-2” value at recombinant PRL-2 (setting [2]) was 105%. In addition, the “% Phosphatase Activity (compared to DMSO) PRL-3” value at recombinant PRL-3 (setting [2]) amounted to 89%. Further, the “% Phosphatase Activity (compared to DMSO) PRL-1” value at recombinant PRL-1 (setting [2]) was determined as 93%.

For `CC(=O)[C@@]1(O)CC[C@H]2[C@@H]3CCC4=CC(=O)CCC4=C3[C@@H](c3ccc(N(C)C)cc3)C[C@@]21C` [Ulipristal], the “% Phosphatase Activity (compared to DMSO) PRL-2” value at recombinant PRL-2 (setting [2]) came out at 92%. Moreover, the “% Phosphatase Activity (compared to DMSO) PRL-3” value on recombinant PRL-3 (setting [2]) was 79%. The “% Phosphatase Activity (compared to DMSO) PRL-1” value at recombinant PRL-1 (setting [2]) is on record as 95%.

Regarding `O=C(NC1CCN(CCCCC2(C(=O)NCC(F)(F)F)c3ccccc3-c3ccccc32)CC1)c1ccccc1-c1ccc(C(F)(F)F)cc1` [Lomitapide], the “% Phosphatase Activity (compared to DMSO) PRL-2” value at recombinant PRL-2 (setting [1]) is listed as 118%. The “% Phosphatase Activity (compared to DMSO) PRL-3” value on recombinant PRL-3 (setting [1]) stood at 117%. Moreover, the “% Phosphatase Activity (compared to DMSO) PRL-1” value on recombinant PRL-1 (setting [1]) was 124%.

Regarding `NNC(=O)c1ccncc1.Nc1ccc(C(=O)O)c(O)c1` [Pasiniazid], the “% Phosphatase Activity (compared to DMSO) PRL-2” value on recombinant PRL-2 (setting [1]) is reported as 97%. Besides, at recombinant PRL-3 (setting [1]), the “% Phosphatase Activity (compared to DMSO) PRL-3” value was 82%. In addition, the “% Phosphatase Activity (compared to DMSO) PRL-1” value at recombinant PRL-1 (setting [1]) turned out to be 91%.

Consider `Oc1c(Br)cc(Br)c2cccnc12` [Broxyquinoline], for which the “% Phosphatase Activity (compared to DMSO) PRL-2” value on recombinant PRL-2 (setting [1]) stood at 101%. Also, the “% Phosphatase Activity (compared to DMSO) PRL-3” value at recombinant PRL-3 (setting [1]) came out at 72%. The “% Phosphatase Activity (compared to DMSO) PRL-1” value at recombinant PRL-1 (setting [1]) worked out at 94%.

Turning to `[NH2][Pt]1([NH2])[O]CC(=O)[O]1` [Nedaplatin], on recombinant PRL-2 (setting [1]), the “% Phosphatase Activity (compared to DMSO) PRL-2” value is 97%. Further, on recombinant PRL-3 (setting [1]), the “% Phosphatase Activity (compared to DMSO) PRL-3” value came out at 94%. For the same molecule, the “% Phosphatase Activity (compared to DMSO) PRL-1” value on recombinant PRL-1 (setting [1]) was determined as 102%.

(Values after PMC8119466, “A screen of FDA-approved drugs identifies inhibitors of protein tyrosine phosphatase 4A3 (PTP4A3 or PRL-3)” (Scientific Reports, 2021).)
